Some results are limits rather than exact numbers.

In the assay the target is T1, human kinase Mps-1 (Homo sapiens, UniProt P33981).
T1 construct: N-terminally GST-tagged human full length recombinant Mps-1 kinase; purchased Invitrogen, Karslruhe, Germany PV4071
T1 sequence (P33981 1-857): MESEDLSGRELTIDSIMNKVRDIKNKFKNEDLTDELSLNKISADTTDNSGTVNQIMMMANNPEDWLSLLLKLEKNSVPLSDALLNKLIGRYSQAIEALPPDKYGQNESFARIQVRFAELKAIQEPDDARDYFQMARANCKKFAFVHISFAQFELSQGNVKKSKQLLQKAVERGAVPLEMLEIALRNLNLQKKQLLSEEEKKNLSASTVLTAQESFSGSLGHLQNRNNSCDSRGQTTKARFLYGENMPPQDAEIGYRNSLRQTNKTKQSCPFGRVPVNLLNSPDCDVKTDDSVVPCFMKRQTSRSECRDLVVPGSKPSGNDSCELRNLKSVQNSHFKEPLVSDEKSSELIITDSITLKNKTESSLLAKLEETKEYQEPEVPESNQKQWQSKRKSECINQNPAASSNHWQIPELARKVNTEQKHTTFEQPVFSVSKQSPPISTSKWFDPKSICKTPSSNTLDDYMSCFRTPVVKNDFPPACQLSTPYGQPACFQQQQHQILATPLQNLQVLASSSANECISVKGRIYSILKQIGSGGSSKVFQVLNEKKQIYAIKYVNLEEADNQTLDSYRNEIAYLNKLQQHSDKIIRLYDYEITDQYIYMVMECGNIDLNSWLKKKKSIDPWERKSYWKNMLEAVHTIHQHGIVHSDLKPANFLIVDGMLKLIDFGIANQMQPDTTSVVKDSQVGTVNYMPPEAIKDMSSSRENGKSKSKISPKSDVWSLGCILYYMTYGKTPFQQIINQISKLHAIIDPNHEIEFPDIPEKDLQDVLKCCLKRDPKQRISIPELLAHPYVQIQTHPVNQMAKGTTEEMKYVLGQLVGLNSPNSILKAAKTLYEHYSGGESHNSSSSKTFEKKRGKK
The assay can be described thus: Mps-1 kinase assay (TR-FRET, 10 μM ATP). To be noted: N-terminally GST-tagged human full length recombinant Mps-1, read-out: Mps-1 Inhibition, IC50 (Assay with 10 μM ATP). Format: biochemical. As to the method:
The human kinase Mps-1 phosphorylates a biotinylated substrate peptide. Detection of the phosphorylated product is achieved by time-resolved fluorescence resonance energy transfer (TR-FRET) from Europium-labelled anti-phospho-Serine/Threonine antibody as donor to streptavidin Labelled with cross-linked allophycocyanin (SA-XLent) as acceptor. Compounds are tested for their inhibition of the kinase activity.
N-terminally GST-tagged human full length recombinant Mps-1 kinase (purchased from Invitrogen, Karslruhe, Germany, cat. no PV4071) was used. As substrate for the kinase reaction a biotinylated peptide of the amino-acid sequence PWDPDDADITEILG (C-terminus in amide form, purchased from Biosynthan GmbH, Berlin) was used.
For the assay 50 nl of a 100-fold concentrated solution of the test compound in DMSO was pipetted into a black low volume 384 well microtiter plate (Greiner Bio-One, Frickenhausen, Germany), 2 μl of a solution of Mps-1 in assay buffer [0.1 mM sodium-ortho-vanadate, 10 mM MgCl2, 2 mM DTT, 25 mM Hepes pH 7.7, 0.05% BSA, 0.001% Pluronic F-127] were added and the mixture was incubated for 15 min at 22° C. to allow pre-binding of the test compounds to Mps-1 before the start of the kinase reaction. Then the kinase reaction was started by the addition of 3 μl of a solution of […] (ATP, 16.7 μM=>final conc. in the 5 μl assay volume is 10 μM) and peptide substrate (1.67 μM=>final conc. in the 5 μl assay volume is 1 μM) in assay buffer and the resulting mixture was incubated for a reaction time of 60 min at 22° C. The concentration of Mps-1 in the assay was adjusted to the activity of the enzyme lot and was chosen appropriate to have the assay in the linear range, typical enzyme concentrations were in the range of about 1 nM (final conc. in the 5 μl assay volume). The reaction was stopped by the addition of 3 μl of a solution of HTRF detection reagents (100 mM Hepes pH 7.4, 0.1% BSA, 40 mM EDTA, 140 nM Streptavidin-XLent [#61GSTXLB, Fa. Cis Biointernational, Marcoule, France], 1.5 nM anti-phospho(Ser/Thr)-Europium-antibody [#AD0180, PerkinElmer LAS, Rodgau-Jügesheim, Germany].
The resulting mixture was incubated 1 h at 22° C. to allow the binding of the phosphorylated peptide to the anti-phospho(Ser/Thr)-Europium-antibody. Subsequently the amount of phosphorylated substrate was evaluated by measurement of the resonance energy transfer from the Europium-labelled anti-phospho(Ser/Thr) antibody to the Streptavidin-XLent. Therefore, the fluorescence emissions at 620 nm and 665 nm after excitation at 350 nm was measured in a Viewlux TR-FRET reader (PerkinElmer LAS, Rodgau-Jügesheim, Germany). The “blank-corrected normalized ratio” (a Viewlux specific readout, similar to the traditional ratio of the emissions at 665 nm and at 622 nm, in which blank and Eu-donor crosstalk are subtracted from the 665 nm signal before the ratio is calculated) was taken as the measure for the amount of phosphorylated substrate. The data were normalised (enzyme reaction without inhibitor=0% inhibition, all other assay components but no enzyme=100% inhibition).
Background: Time-resolved FRET reads energy transfer from a long-lived donor to a nearby acceptor.
The term IC50 denotes the concentration needed to halve the response being measured. Take `COc1cc(C(=O)N2CCOCC2)ccc1Nc1nc2ccc(-c3ccc(NC(=O)Cc4ccc(F)cc4)cc3)nn2n1` [Example 1.1, 2-(4-fluorophenyl)-N-[4-(2-{[2-methoxy-4-(morpholin-4-ylcarbonyl)phenyl]amino}[1,2,4]triazolo[1,5-b]pyridazin-6-yl)phenyl]acetamide]: the IC50 is not above 1 nM. As for `COc1ccccc1Nc1nc2cnc(-c3cc(C)c(O)c(C)c3)cn2n1` [Example 3.8, 4-{2-[(2-methoxyphenyl)amino][1,2,4]triazolo[1,5-a]pyrazin-6-yl}-2,6-dimethylphenol], the IC50 is 71.6 nM. Turning to `COc1cc(C(C)(C)O)ccc1Nc1nc2ccc(-c3ccc(NC(=O)Cc4ccc(F)cc4)cc3)nn2n1` [Example 1.2, 2-(4-fluorophenyl)-N-[4-(2-{[4-(2-hydroxypropan-2-yl)-2-methoxyphenyl]amino}[1,2,4]triazolo[1,5-b]pyridazin-6-yl)phenyl]acetamide], the IC50 is not above 1 nM.

As to `Cc1cc(-c2cn3nc(Nc4ccccc4C#N)nc3cn2)cc(C)c1O` [Example 3.1, 2-{[6-(4-hydroxy-3,5-dimethylphenyl)[1,2,4]triazolo[1,5-a]pyrazin-2-yl]amino}benzonitrile], the IC50 was 33.5 nM. Under `N#Cc1c(F)cccc1Nc1nc2cnc(-c3ccc(NC(=O)CC4CC4)cc3)cn2n1` [Example 3.6, N-(4-{2-[(2-cyano-3-fluorophenyl)amino][1,2,4]triazolo[1,5-a]pyrazin-6-yl}phenyl)-2-cyclopropylacetamide] stands 14.6 nM; under `Nc1nc2ccc(-c3ccc(NC(=O)Cc4ccc(F)cc4)cc3)cc2s1` [Example 4.3, N-[4-(2-amino-1,3-benzothiazol-6-yl)phenyl]-2-(4-fluorophenyl)acetamide], 8.6 nM. As for `N#Cc1ccccc1Nc1nc2cnc(-c3ccc(NC(=O)Cc4ccc(F)cc4)cc3)cn2n1` [Example 2.1, N-(4-{2-[(2-cyanophenyl)amino][1,2,4]triazolo[1,5-a]pyrazin-6-yl}phenyl)-2-(4-fluorophenyl)acetamide], the figure is not above 1 nM; as for `N#Cc1ccccc1Nc1nc2cnc(-c3ccc(NC(=O)Cc4ccccc4)cc3)cn2n1` [Example 2.3, N-(4-{2-[(2-cyanophenyl)amino][1,2,4]triazolo[1,5-a]pyrazin-6-yl}phenyl)-2-phenylacetamide], 2.6 nM; as for `COc1cc(S(C)(=O)=O)ccc1Nc1nc2ccc(-c3ccc(NC(=O)Cc4ccc(F)cc4)cc3)cc2s1` [Example 4.2, 2-(4-fluorophenyl)-N-[4-(2-{[2-methoxy-4-(methylsulfonyl)phenyl]amino}-1,3-benzothiazol-6-yl)phenyl]acetamide], 2.9 nM.

For the molecule `N#Cc1ccccc1Nc1nc2cnc(-c3ccc(NC(=O)CC4CC4)cc3)cn2n1` [Example 3.2, N-(4-{2-[(2-cyanophenyl)amino][1,2,4]triazolo[1,5-a]pyrazin-6-yl}phenyl)-2-cyclopropylacetamide], the IC50 amounted to 22.4 nM. Take `N#Cc1c(F)cccc1Nc1nc2cnc(-c3ccc(NC(=O)Cc4ccc(F)c(F)c4)cc3)cn2n1` [Example 2.7, N-(4-{2-[(2-cyano-3-fluorophenyl)amino][1,2,4]triazolo[1,5-a]pyrazin-6-yl}phenyl)-2-(3,4-difluorophenyl)acetamide]: the IC50 came out at 2.9 nM. As for `N#Cc1c(F)cccc1Nc1nc2cnc(-c3ccc(NC(=O)Cc4ccc(F)cc4)cc3)cn2n1` [Example 2.2, N-(4-{2-[(2-cyano-3-fluorophenyl)amino][1,2,4]triazolo[1,5-a]pyrazin-6-yl}phenyl)-2-(4-fluorophenyl)acetamide], the figure is not above 1 nM; as for `COc1cc(S(C)(=O)=O)cnc1Nc1cn2cc(-c3ccc(NC(=O)[C@H](C)c4ccc(F)cc4)cc3)ccc2n1` [Example 7.1, (2R)-2-(4-fluorophenyl)-N-[4-(2-{[3-methoxy-5-(methylsulfonyl)pyridin-2-yl]amino}imidazo[1,2-a]pyridin-6-yl)phenyl]propanamide], not above 1 nM; as for `CCNC(=O)c1cccc(-c2cn3nc(Nc4ccccc4C#N)nc3cn2)c1` [Example 3.4, 3-{2-[(2-cyanophenyl)amino][1,2,4]triazolo[1,5-a]pyrazin-6-yl}-N-ethylbenzamide], 206 nM. As for `COc1cc(C(=O)N2CCOCC2)ccc1Nc1nc2ccc(-c3ccc(NC(=O)Cc4ccc(F)cc4)cc3)cc2s1` [Example 4.1, 2-(4-fluorophenyl)-N-[4-(2-{[2-methoxy-4-(morpholin-4-ylcarbonyl)phenyl]amino}-1,3-benzothiazol-6-yl)phenyl]acetamide], the figure is not above 1 nM; as for `N#Cc1ccccc1Nc1nc2cnc(-c3ccc(N)cc3)cn2n1` [Example 3.7, 2-{[6-(4-aminophenyl)[1,2,4]triazolo[1,5-a]pyrazin-2-yl]amino}benzonitrile], 443 nM; as for `N#Cc1c(F)cccc1Nc1nc2cnc(-c3ccc(NC(=O)Cc4ccccc4)cc3)cn2n1` [Example 2.5, N-(4-{2-[(2-cyano-3-fluorophenyl)amino][1,2,4]triazolo[1,5-a]pyrazin-6-yl}phenyl)-2-phenylacetamide], not above 1 nM. Under `N#Cc1ccccc1Nc1nc2cnc(-c3cccc(C(=O)NC4CCCCC4)c3)cn2n1` [Example 3.9, 3-{2-[(2-cyanophenyl)amino][1,2,4]triazolo[1,5-a]pyrazin-6-yl}-N-cyclohexylbenzamide] stands 69 nM; under `COc1cc(N2CCN(C)CC2)ccc1Nc1nc2cnc(-c3ccc(NC(=O)Cc4ccc(F)cc4)cc3)cn2n1` [Example 2.4, 2-(4-fluorophenyl)-N-[4-(2-{[2-methoxy-4-(4-methylpiperazin-1-yl)phenyl]amino}[1,2,4]triazolo[1,5-a]pyrazin-6-yl)phenyl]acetamide], not above 1 nM. In the case of `N#Cc1ccccc1Nc1nc2cnc(-c3cccc(C(=O)NC4CC4)c3)cn2n1` [Example 3.3, 3-{2-[(2-cyanophenyl)amino][1,2,4]triazolo[1,5-a]pyrazin-6-yl}-N-cyclopropylbenzamide], the IC50 worked out at 84.1 nM. As for `N#Cc1ccccc1Nc1nc2cnc(-c3cccc(C(=O)NC4CCCC4)c3)cn2n1` [Example 3.5, 3-{2-[(2-cyanophenyl)amino][1,2,4]triazolo[1,5-a]pyrazin-6-yl}-N-cyclopentylbenzamide], the figure is 35.4 nM; as for `N#Cc1ccccc1Nc1nc2cnc(-c3ccc(NC(=O)Cc4ccc(F)c(F)c4)cc3)cn2n1` [Example 2.6, N-(4-{2-[(2-cyanophenyl)amino][1,2,4]triazolo[1,5-a]pyrazin-6-yl}phenyl)-2-(3,4-difluorophenyl)acetamide], 2.1 nM.

(Values after patent publication US20160207928A1, “NOVEL COMPOUNDS FOR THE TREATMENT OF CANCER” (BAYER PHARMA AKTIENGESELLSCHAFT, priority 2013, published 2016).)
